According to US20240239771A1, “BACTERIAL EFFLUX PUMP INHIBITORS” (priority 2020, published 2024):
Where a name gives a salt, the structure may show the parent alone. Read-outs that look alike come from different tables or passages of the source.

Tests used:
[1] = system: Pseudomonas aeruginosa ATCC 27853; experiment: Standard EPI assay: MIC of test antibiotic in absence and presence of EPI; type: cell-based; settings: for Enhanced Antibiotic's Activity (fold increase), Doxycycline: doxycycline with compound at 6.25 μg/mL, relative to MIC without EPI (32 μg/mL); for Enhanced Antibiotic's Activity (fold increase), Levofloxacin: levofloxacin with compound at 6.25 μg/mL, relative to MIC without EPI (1 μg/mL); for Enhanced Antibiotic's Activity (fold increase), Ceftazidime: ceftazidime with compound at 6.25 μg/mL, relative to MIC without EPI (2 μg/mL)
Method: The EPI assay for the purposes of these studies represents a MIC assay in which the MIC of the antibiotic against the bacteria is tested in the presence of an experimental efflux pump inhibitor (EPI). The highest concentration of the EPI present in the assay typically is ½ of the intrinsic MIC of the compound. If the intrinsic MIC of the EPI is greater than 100 μg/mL, the EPI assay was tested with 50 μg/mL. Using serial dilutions of the EPI, its enhancement of antibiotic activity was then evaluated. The relative EPI activity was decided by comparing the MIC of the antibiotic in the presence of the EPI compound with the intrinsic MIC of the antibiotic alone.
The impact of the EPIs on the MIC values of three test antibiotics (levofloxacin, ceftazidime and doxycycline) against P. aeruginosa ATCC 27853 were evaluated using our standard EPI assay. All three antibiotics levofloxacin, ceftazidime and doxycycline are known substrates of efflux pumps in P. aeruginosa, and are thus well-suited to be test antibiotics to assay for EPI activity.
In our standard EPI assay, the MIC of the test antibiotic is determined in the absence and presence of sub-inhibitory concentrations of the EPI. […] The MIC of levofloxacin against P. aeruginosa ATCC 27853 in the absence of EPI is 1 μg/mL. […] Similarly, the MIC of ceftazidime against P. aeruginosa ATCC 27853 in the absence of EPI is 2 μg/mL. In the presence of 6.25 μg/mL of the Example 4, the MIC of ceftazidime was reduced to 0.5 μg/mL, a 4-fold reduction. […] For all the examples in Table 1, the potentiation activities are determined at 6.25 μg/mL.

[2] = system: Pseudomonas aeruginosa ATCC 27853; experiment: Intrinsic MIC assay (CLSI broth microdilution); type: cell-based
Method: MIC assays were conducted in accordance with Clinical and Laboratory Standards Institute (CLSI) guidelines for broth microdilution. A 96-well plate containing cation-adjusted Mueller-Hinton (CAMH broth with 2-fold serial dilution of compounds was inoculated with log-phase bacterial at 5×10^5 CFU/mL. The final volume in each well was 100 μL. Each compound was tested in duplicate. The microtiter plates were incubated in an aerobic environment for 18 hours at 37° C. Then the bacterial growth was tested by reading the plate with a VersaMax plate reader (Molecular Devices, Inc.) at 600 nm. The MIC was defined as the lowest compound concentration that inhibited 90% of bacteria growth.
The intrinsic MIC of the experimental EPIs was tested with the method described. The 2-fold serial dilution begins with 100 μg/mL of tested compound in the first column of the 96-well plates. The following Gram-negative bacterial strain was included in these assays: Pseudomonas aeruginosa ATCC 27853.

[3] = ATCC27853, read-out: Intrinsic MIC of Compound

MIC ([2]; ATCC27853, P. aeruginosa ATCC 27853, compound alone, read-out: Intrinsic MIC of Compound) | SMILES | Enhanced Antibiotic's Activity (fold increase), Doxycycline [1] | Enhanced Antibiotic's Activity (fold increase), Levofloxacin [1] | MIC [2, 3] | Enhanced Antibiotic's Activity (fold increase), Ceftazidime [1]
– | Cc1c(C(=O)NC[C@@H](N)COCCN)[nH]c2cccc(-c3ccc(F)cc3)c12 [Example 33, (R)—N-(2-amino-3-(2-aminoethoxy)propyl)-4-(4-fluorophenyl)-3-methyl-1H-indole-2-carboxamide hydrogen chloride salt] | 128 fold | 32 fold | 100 µg/mL | –
– | NCCOC[C@H](N)CNC(=O)c1[nH]c2ccccc2c1-c1ccc(F)cc1 [Example 19, (R)—N-(2-amino-3-(2-aminoethoxy)propyl)-3-(4-fluorophenyl)-1H-indole-2-carboxamide hydrogen chloride salt] | 16 fold | 16 fold | > 100 µg/mL | 2 fold
– | N#Cc1ccc(-c2c(C(=O)NC[C@@H](N)CC(O)CN)[nH]c3c(F)cccc23)cc1 (stereo partly drawn) [Example 14, 3-(4-cyanophenyl)-N-((2S)-2,5-diamino-4-hydroxypentyl)-7-fluoro-1H-indole-2-carboxamide hydrogen chloride salt] | 16 fold | 32 fold | > 100 µg/mL | 1 fold
200 µg/mL | NCC(O)[C@H](N)CNC(=O)c1[nH]c2ccccc2c1-c1ccc(F)cc1 (stereo partly drawn) [Example 35, N-((2R)-2,4-diamino-3-hydroxybutyl)-3-(4-fluorophenyl)-1H-indole-2-carboxamide] | – | 4 fold | – | –
– | NCCC(O)[C@@H](N)CNC(=O)c1[nH]c2ccccc2c1C1CCCC1 (stereo partly drawn) [Example 4, 3-cyclopentyl-N-((2S)-2,5-diamino-3-hydroxypentyl)-1H-indole-2-carboxamide hydrogen chloride salt] | 32 fold | 32 fold | > 100 µg/mL | 4 fold
– | NCCC[C@H](N)COC[C@H](N)CNC(=O)c1[nH]c2ccccc2c1-c1ccc(F)cc1 [Example 34, N—((R)-2-amino-3-(((S)-2,5-diaminopentyl)oxy)propyl)-3-(4-fluorophenyl)-1H-indole-2-carboxamide hydrogen chloride salt] | 32 fold | 8 fold | > 200 µg/mL | –
– | NCCC(O)[C@@H](N)CNC(=O)c1[nH]c2ccccc2c1C1CCC(F)(F)CC1 (stereo partly drawn) [Example 6, N-((2S)-2,5-diamino-3-hydroxypentyl)-3-(4,4-difluorocyclohexyl)-1H-indole-2-carboxamide hydrogen chloride salt] | 16 fold | 64 fold | 100 µg/mL | 4 fold
– | NCC[C@@H](O)[C@@H](N)CNC(=O)c1[nH]c2ccccc2c1-c1ccc(F)cc1 [Example 1, N-((2S,3R)-2,5-diamino-3-hydroxypentyl)-3-(4-fluorophenyl)-1H-indole-2-carboxamide hydrogen chloride salt] | 16 fold | 8 fold | > 100 µg/mL | 1 fold
– | N#Cc1ccc(-c2c(C(=O)NC[C@@H](N)CC(O)CN)[nH]c3ccccc23)cc1 (stereo partly drawn) [Example 11, 3-(4-cyanophenyl)-N-((2S)-2,5-diamino-4-hydroxypentyl)-1H-indole-2-carboxamide hydrogen chloride salt] | 16 fold | 16 fold | > 100 µg/mL | 1 fold
– | NCCOC[C@H](N)CNC(=O)c1[nH]c2ccc(F)cc2c1C1CCCCC1 [Example 22, (R)—N-(2-amino-3-(2-aminoethoxy)propyl)-3-cyclohexyl-5-fluoro-1H-indole-2-carboxamide hydrogen chloride salt] | – | 32 fold | 25 µg/mL | –
– | N#Cc1ccc(-c2c(C(=O)NC[C@@H](N)COCCN)[nH]c3ccc(F)cc23)cc1 [Example 20, (R)—N-(2-amino-3-(2-aminoethoxy)propyl)-3-(4-cyanophenyl)-5-fluoro-1H-indole-2-carboxamide hydrogen chloride salt] | 16 fold | 16 fold | > 100 µg/mL | 2 fold
– | NCCC(O)[C@@H](N)CNC(=O)c1[nH]c2ccccc2c1-c1ccccc1F (stereo partly drawn) [Example 7, N-((2S)-2,5-diamino-3-hydroxypentyl)-3-(2-fluorophenyl)-1H-indole-2-carboxamide hydrogen chloride salt] | 4 fold | 2 fold | > 100 µg/mL | 1 fold
– | NCCC(O)[C@@H](N)CNC(=O)c1cc2cccc(-c3ccc(F)cc3)c2[nH]1 (stereo partly drawn) [Example 28, N-((2S)-2,5-diamino-3-hydroxypentyl)-7-(4-fluorophenyl)-1H-indole-2-carboxamide hydrogen chloride salt] | – | 16 fold | 50 µg/mL | –
– | NC[C@H]1CN[C@H](CNC(=O)c2[nH]c3ccccc3c2-c2ccc(F)cc2)C1=O [Example 25, N-(((2R,4S)-4-(aminomethyl)-3-oxopyrrolidin-2-yl)methyl)-3-(4-fluorophenyl)-1H-indole-2-carboxamide hydrogen chloride salt] | 1 fold | 1 (1) fold | > 100 µg/mL | 1 fold
– | NC[C@H]1CN[C@H](CNC(=O)c2[nH]c3ccc(F)cc3c2-c2ccccc2)[C@H]1O [Example 24, N-(((2R,3S,4S)-4-(aminomethyl)-3-hydroxypyrrolidin-2-yl)methyl)-5-fluoro-3-phenyl-1H-indole-2-carboxamide hydrogen chloride salt] | – | 16 fold | > 100 µg/mL | –
– | NCCC(O)[C@@H](N)CNC(=O)c1[nH]c2ccccc2c1-c1ccccc1 (stereo partly drawn) [Example 2, N-((2S)-2,5-diamino-3-hydroxypentyl)-3-phenyl-1H-indole-2-carboxamide hydrogen chloride salt] | 16 fold | 8 fold | > 100 µg/mL | –
